Reference: patent publication US10471046B2, “Method for treating, preventing, or reducing the risk of skin infection” (Melinta Subsidiary Corp., priority 2014, dated 2019)
≈ marks a conversion by molar mass, not a printed value. Like-named read-outs stand apart in the source and are kept apart here.

Columns and labels:
B. fragilis [1] = experiment: Agar dilution MIC (CLSI reference method); format: cell-based; conditions: Bacteroides fragilis, ATCC25285; B. fragilis ATCC 25285
B. thetaiotaomicron = experiment: microbe, parasite or virus in culture; format: cell-based; conditions: Bacteroides thetaiotaomicron, ATCC29741; B. thetaiotaomicron ATCC 29741; read-out: MIC, agar dilution
F. magna = experiment: Agar dilution MIC (CLSI reference method); format: cell-based
P. acnes = experiment: Agar dilution MIC (CLSI reference method); format: cell-based; conditions: for MIC: Cutibacterium acnes
P. granulosum [2] = experiment: Agar dilution MIC (CLSI reference method); format: cell-based
G. vaginalis [3] = experiment: Agar dilution MIC (CLSI reference method); format: cell-based; conditions: for MIC: Gardnerella vaginalis
all organisms = experiment: Agar dilution MIC, range over the isolates tested; format: cell-based; conditions: read-out: agar dilution MICs for all organisms
B. fragilis [4] = experiment: Broth microdilution MIC; format: cell-based; conditions: Bacteroides fragilis, ATCC25285; B. fragilis ATCC 25285
P. granulosum [5] = experiment: Broth microdilution MIC; format: cell-based
G. vaginalis [6] = experiment: Broth microdilution MIC; format: cell-based; conditions: for MIC: Gardnerella vaginalis
S. aureus = experiment: Broth microdilution MIC; format: cell-based; conditions: Staphylococcus aureus, ATCC29213; S. aureus ATCC 29213
Enterococcus faecalis = experiment: MIC against ribosome-based resistance phenotypes; format: cell-based; conditions: read-out: Minimum Inhibitory Concentration (MIC)
Description: (§1) Furthermore, the antibiotic compounds can be assayed for anti-proliferative or anti-infective properties on a cellular level. For example, where the target organism is a microorganism, the activity of compounds of interest can be assayed by growing the microorganisms of interest in media either containing or lacking the compound. Growth inhibition can be indicative that the molecule could be acting as a protein synthesis inhibitor. […] For this purpose, a panel of bacterial strains can be assembled to include a variety of target pathogenic species, some containing resistance mechanisms that have been characterized. Use of such a panel of organisms permits the determination of structure-activity relationships not only in regards to potency and spectrum, but also with a view to obviating resistance mechanisms.

Staphylococcus aureus = experiment: MIC against ribosome-based resistance phenotypes; format: cell-based; conditions: read-out: Minimum Inhibitory Concentration (MIC)
Description: as §1

[7] = Long-term rat safety study; format: in vivo
Description: There was 100% survival in all dose groups.

[8] = Human exposure (AUC 0-24); conditions: in vivo; human @ 300 mg dose
[9] = Radezolid levels in granuloma pouch and plasma; format: in vivo; conditions: FIGS. 3-4
[10] = format: physicochemical; conditions: radezolid salt forms in HPLC grade water, ambient temperature; listed as Free base
[11] = Approximate solubility in solvents by aliquot addition; format: physicochemical; conditions: ambient temperature
Method: Solubilities of the radezolid free base and radezolid HCl salt in various solvents were estimated and are shown in Tables 10 and 11, respectively, below. A weighed sample was treated with aliquots of test solvent at ambient temperature. Complete dissolution of the test material was determined by visual inspection. Solubility was estimated based on the total solvent used to provide complete dissolution. The actual solubility may be greater than the approximate solubility calculated because of the use of solvent aliquots that were too large or due to a slow rate of dissolution. […] If complete dissolution was achieved as a result of only one aliquot addition, the solubility is expressed as “greater than.” The approximate solubilities were rounded to the nearest whole number.

[12] = system: mammalian cells (e.g., defense cells, macrophages, lung cells, and non-phagocytic cells); conditions: cited from earlier work
[13] = system: intracellular S. aureus (including linezolid-resistant); conditions: cited from earlier work
Listeria monocytogenes = conditions: cited from earlier work
Legionella pneumophila = conditions: cited from earlier work
[14] = ATCC14018, G. vaginalis ATCC 14018
[15] = ATCC49145, G. vaginalis ATCC 49145

CC(=O)NC[C@H]1CN(c2ccc(-c3ccc(CNCc4cnn[nH]4)cc3)c(F)c2)C(=O)O1 [Radezolid, (5S)—N-[3-(2-Fluoro-4′-{[(1H-[1,2,3]triazol-4-ylmethyl)-amino]-methyl}-biphenyl-4-yl)-2-oxo-oxazolidin-5-ylmethyl]-acetamide]
MIC (B. fragilis [1]): 4 µg/mL (≈ 9.12 µM)
MIC (B. thetaiotaomicron): > 8 µg/mL
agar dilution MIC, fold more potent than linezolid (F. magna; F. magna): 4 fold
difference between broth and agar dilution MICs (F. magna; F. magna): 4 fold
MIC (F. magna; Finegoldia magna, ATCC15794, F. magna ATCC 15794): 0.5 µg/mL (≈ 1.14 µM)
MIC (P. acnes; ATCC11827, P. acnes ATCC 11827): 0.125 µg/mL (≈ 0.285 µM)
MIC (P. acnes; ATCC11828, P. acnes ATCC 11828): 0.125 µg/mL (≈ 0.285 µM)
MIC (P. acnes; ATCC29399, P. acnes ATCC 29399): 0.125 µg/mL (≈ 0.285 µM)
agar dilution MIC, fold more potent than linezolid (P. acnes; P. acnes): 4 fold
agar dilution MIC, fold more potent than linezolid (P. granulosum [2]; P. granulosum): 8 fold
MIC (P. granulosum [2]; P. granulosum ATCC 25746): 0.25 µg/mL (≈ 0.57 µM)
agar dilution MIC, fold more potent than linezolid (G. vaginalis [3]; G. vaginalis): 8 fold
MIC (G. vaginalis [3]; [14]): 0.06 µg/mL (≈ 0.137 µM)
MIC (G. vaginalis [3]; [15]): 0.06 µg/mL (≈ 0.137 µM)
MIC (all organisms): 0.06 to 1 µg/mL (≈ 0.137 to 2.28 µM)
MIC (B. fragilis [4]): 2 µg/mL (≈ 4.56 µM)
broth microdilution, fold more active than linezolid (P. granulosum [5]; P. granulosum): 8 fold
MIC (P. granulosum [5]; P. granulosum ATCC 25746): 0.125 µg/mL (≈ 0.285 µM)
broth microdilution, fold more active than linezolid (G. vaginalis [6]; G. vaginalis 49145): 8 fold
MIC (G. vaginalis [6]; [14]): 0.125 µg/mL (≈ 0.285 µM)
MIC (G. vaginalis [6]; [15]): 0.06 µg/mL (≈ 0.137 µM)
MIC (S. aureus): 2 µg/mL (≈ 4.56 µM)
MIC (Enterococcus faecalis; ATCC29212, Enterococcus faecalis ATCC29212, phenotype QC): 0.25 µg/mL (≈ 0.57 µM)
MIC (Enterococcus faecalis; ATCC29212, Enterococcus faecalis ATCC29212-P5, Lin-R (G2576U)): 1 µg/mL (≈ 2.28 µM)
MIC (Enterococcus faecalis; Enterococcus faecalis 1069, VanB): 0.25 µg/mL (≈ 0.57 µM)
MIC (Staphylococcus aureus; ATCC29213, Staphylococcus aureus ATCC29213, phenotype QC): 1 µg/mL (≈ 2.28 µM)
MIC (Staphylococcus aureus; Staphylococcus aureus 01A1095, Mac-R): 1 µg/mL (≈ 2.28 µM)
MIC (Staphylococcus aureus; Staphylococcus aureus A7820, Lin-R (G2576U) + Mac-R (ErmC)): 16 µg/mL
survival ([7]; both, rat, in vivo): 100%
Safety margin (Rat NOAEL AUC/Human efficacious AUC) ([7]; calculated from rat and human AUC 0-24): 30.8x
AUC(0-t) ([7]; male, rat, in vivo, 200 mg/kg): 102000 ng·h/mL
changes in hematology, coagulation, clinical chemistry, or urinalysis ([7]; rat, in vivo): No test article-related changes
safety in long-term rat study ([7]; rat, in vivo): good safety
AUC(0-t) [8]: 3330 ng·h/mL
levels in granuloma pouch versus plasma over time [9]: remain high in granuloma pouch even as they decline in the plasma
solubility [10]: <20 µg/mL
solubility ([11]; 2,2,2-trifluoroethanol (TFE), organic solvent or mixture, thermodynamic from solid, 2,2,2-trifluoroethanol (TFE)): ≥ 54000 µg/mL
solubility ([11]; HFIPA/methanol (1:3 by volume), organic solvent or mixture, thermodynamic from solid, HFIPA/Methanol (1:3 by volume)): < 1000 µg/mL
solubility ([11]; acetone, organic solvent or mixture, thermodynamic from solid): < 1000 µg/mL
solubility ([11]; acetonitrile, organic solvent or mixture, thermodynamic from solid): < 1000 µg/mL
solubility ([11]; dichloromethane, organic solvent or mixture, thermodynamic from solid): < 1000 µg/mL
solubility ([11]; ethyl acetate, organic solvent or mixture, thermodynamic from solid): < 1000 µg/mL
solubility ([11]; ethyl ether, organic solvent or mixture, thermodynamic from solid): < 1000 µg/mL
solubility ([11]; hexafluoroisopropanol (HFIPA), organic solvent or mixture, thermodynamic from solid): ≥ 245000 µg/mL
solubility ([11]; hexamethylphosphoramide, organic solvent or mixture, thermodynamic from solid, Hexamethyl-phosphoramide): < 26000 µg/mL
solubility ([11]; methanol, organic solvent or mixture, thermodynamic from solid): < 1000 µg/mL
solubility ([11]; tetrahydrofuran (THF), organic solvent or mixture, thermodynamic from solid): < 1000 µg/mL
solubility ([11]; water, thermodynamic from solid): < 1000 µg/mL
fraction accumulating in the cytosol of cells ([12]; cytosol): Approximately 60%
fraction accumulating in the lysosome ([12]; lysosome): approximately 40%
accumulation in mammalian cells, extent greater than linezolid ([12]; relative to linezolid): 17 fold
intracellular killing [13]: kills
intracellular killing (Listeria monocytogenes): kills
intracellular killing (Legionella pneumophila): kills
